Laboratory results published in paper PMC9229919, “4-Aminoquinoline-Based Adamantanes as Potential Anticholinesterase Agents in Symptomatic Treatment of Alzheimer’s Disease” (Pharmaceutics, 2022).

Experiment: Ferric reducing antioxidant power (FRAP) assay;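 as to FRAP: expressed as µM Fe2+ equivalents from an FeSO4·7H2O standard curve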
Settings: for FRAP: mean ± standard error of three experiments
Method: . All the chemicals were purchased from Sigma-Aldrich (St. Louis, MO, USA), except for tripyridyltriazine (TPTZ) (Fluka, Buchs, Switzerland) and FeCl3 (Kemika, Zagreb, Croatia). The FRAP assay was assessed according to Benzie and Strain [53] with slight procedure adjustments for 96-well microplates. The method is based on the reduction of the ferric-tripyridyltriazine (Fe^3+-TPTZ) complex to ferrous tripyridyltriazine (Fe^2+-TPTZ) by the action of electron-donating compounds at a low pH. Briefly, the FRAP reagent was prepared by mixing acetate buffer (300 mM, pH 3.6), a solution of 10 mM TPTZ in 40 mM HCl, and 20 mM FeCl3 at 10:1:1 (v/v/v). Then, 240 μL of FRAP reagent and 10 μL of sample solution were added to a 96-well plate and incubated at 37 °C for 60 min. The absorbance was measured at 593 nm using a microplate reader (Infinite M200PRO, Tecan Austria GmbH, Salzburg, Austria) against a blank. The reducing capacity was determined for 10 and 100 µM compound concentrations. […]. All measurements were performed in three independent experiments. FRAP values, denominating the reduction of ferric-tripyridyltriazine (Fe^3+-TPTZ) to ferrous tripyridyltriazine (Fe^2+-TPTZ) by 4-aminoquinolines were calculated based on a standard curve obtained using […].

SMILES	FRAP (10 µM compound)	FRAP (100 µM compound)	reducing power (in words) (10 and 100 µM)
Cc1c(C)c2c(c(C)c1O)CCC(C)(C(=O)O)O2 (stereo not drawn) [Trolox, reference compound]	523 ± 8 µM	5812 ± 68 µM	
Nc1c2c(nc3ccccc13)CCCC2 [Tacrine, reference compound]	3.4 ± 0.0 µM	15 ± 2 µM	negligible reducing power
Cc1cc(C(C)(C)C)c(O)c(C(C)(C)C)c1 [BHT, butylated hydroxytoluene, reference compound]		3021 ± 117 µM	
